The test system of data set [1] is GST activity in the forestomach tissue of rats. Briefly: Glutathione S transferase (GST) activity of the cytosolic extracts of rat forestomach after oral dosing. The data set is classed as in vivo. The following applies: rat forestomach cytosol; oral gavage 180 mg-equivalents of MMF/kg once per day for 14 days; relative to DMF. The protocol:
wherein SARprodrug is the ratio of (i) the GST activity in the forestomach tissue of rats treated with the MMF prodrug (GSTAprodrug) to (ii) the GST activity in the forestomach tissue of rats treated with a non-irritating control solution comprised of 0.5 wt % methylcellulose and 0.1 wt % Tween 80 in 10 mM sodium acetate buffer, pH 4.5 (GSTAcontrol); and SARDMF is the ratio of (i) the GST activity in the forestomach tissue of rats treated with DMF (GSTADMF) to (ii) the GST activity in the forestomach tissue of rats treated with a non-irritating control solution comprised of 0.5 wt % methylcellulose and 0.1 wt % Tween 80 in 10 mM sodium acetate buffer, pH 4.5 (GSTAcontrol). The SARprodrug is proportional to the amount of GST isozymes induced by the MMF prodrug treatment while the SARDMF is proportional to the amount of GST isozymes induced by DMF prodrug treatment. A detailed description of how to determine the GSTArel is provided in Example 1 herein. […]
Total cytosolic GST activity is determined by measuring the conjugation of 1-chloro-2,4-dinitrobenzene (CDNB) with reduced glutathione. […] The formation of the conjugate is monitored spectrophotometrically by measuring the rate of increase in absorbance at 340 nm over a period of 3 minutes. The rate of increase is measured in μmole/min production of GST-CDNB and is directly proportional to the GST activity in the sample. […]

Another data set has as its system rat stomach. Put plainly: Gastrointestinal irritation evaluation in rats (Annamalai-Ma gastrointestinal irritation rat model). The data set is classed as in vivo. The following applies: average stomach score (0-5 scale, Table 1) from at least 5 rats; oral, once per day for 4 consecutive days. As to the method: In order to assess gastrointestinal irritation using this model, rats are treated orally with either vehicle or the MHF prodrug to be tested (n=10 per group) at 180 mg-equivalents MHF/kg of animal body weight, dosed once per day for 4 days, followed by necropsy and gastrointestinal evaluation at 24 hrs after the final dose. Evans Blue dye is injected IV (tail vein) to visually emphasize any lesions in the gastrointestinal tissue.
Rats were dosed once per day for 4 consecutive days with 180 mg-equivalents MHF/kg body weight per day of a number of MHF prodrugs. The animals were fasted overnight prior to necropsy. On Day 5, to help visualize lesions, 1 mL of 1% Evan's blue in saline was injected into the tail vein 30 minutes prior to euthanasia. All animals were euthanized by inhalation of carbon dioxide. A partial necropsy, limited to the abdominal cavities, was performed. The stomach and small intestine were removed. Residual material was washed away, using an irrigation syringe filled with saline. The stomach was cut along the larger curvature and washed gently with normal saline, and was examined for any lesions. The stomachs were scored in accordance with the scoring system outlined in Table 1. The stomach scores from at least 5 rats were used to calculate an average gastrointestinal irritation score, which scores are reported in Table 2.

The next data set concerns C57BL/6 mice. Put plainly: MOG35-55 mouse EAE model of multiple sclerosis. The data set is classed as in vivo. As to conditions: oral 90 mg-eq MHF/kg twice daily, Days 3 to 29. As to the method:
(§1) C57BL/6 mice (6 females) were injected subcutaneously with MOG35-55 peptide in CFA with Mycobacterium tuberculosis. Pertussis toxin ([…]) was injected IV on Day 0 and Day 2 post-immunization. Animals received oral XP23829 or DMF (90 mg-eq MHF/kg twice daily) or vehicle on Days 3 to 29. Daily EAE clinical disease scores (5 point scale) were recorded. End of study MHF blood levels were determined by LC/MS/MS.

A further data set concerns Balb/c mice. Put plainly: Imiquimod (IMQ) mouse model of psoriasis. The data set is classed as in vivo. The following applies: Day -5 to Day 5. From the text:
Balb/c mice (10 males/group) received daily topical IMQ (5% cream) on shaved back and right ear for 5 days. […] Erythema score was the primary outcome measure.

A short description of data set [2]: MHF and intact prodrug blood levels in the mouse efficacy studies (LC/MS/MS). The data set is classed as in vivo. The following applies: oral dosing. The protocol:
as §1

Data set [3] in a line: Toxicokinetics at steady state in rats. The data set is classed as in vivo, rat. As to the method: (§2) Gastrointestinal toxicity was assessed by gross necropsy and histopathology. Toxicokinetics were assessed at steady state in parallel cohorts.
Data set [4] can be described thus: Toxicokinetics at steady state in monkeys. Format: in vivo, monkey. As to the method: as §2
Data set [5] has as its system CD rats. Put plainly: 4-week GLP toxicity study in rats, gastrointestinal toxicity by gross necropsy and histopathology. As to conditions: 500 mg/kg/day for 4 weeks.
Method: (§3) (N,N-diethylcarbamoyl)methyl methyl (2E)but-2-ene-1,4-dioate was administered to CD rats (10/sex/dose) at 0 (vehicle), 150, 250, or 500 mg/kg/day and monkeys (3/sex/group) at 0 (vehicle), 25, 75, or 200 mg/kg/day for 4 weeks in GLP toxicity studies. In parallel studies, DMF was administered at doses intended to deliver similar MHF exposures: in rats (10/sex/dose) at 90, 150, and 300 mg/kg/day and monkeys (3/sex/group) at 0 (vehicle), 40, 90, or 250 mg/kg/day for 4 weeks. Gastrointestinal toxicity was assessed by gross necropsy and histopathology.
Data set [6] deals with CD rats. The following applies: rat, in vivo, 300 mg/kg/day.
Method: as §3
Another data set has as its system monkeys. Put plainly: 4-week GLP toxicity study in monkeys, gastrointestinal toxicity by gross necropsy and histopathology.

The source of these data is patent US20150252013A1, “TREATMENT OF MULTIPLE SCLEROSIS AND PSORIASIS USING PRODRUGS OF METHYL HYDROGEN FUMARATE” (XenoPort, Inc., priority 2012, published 2015).

Where a name gives a salt, the structure may show the parent alone. Read-outs that look alike come from different tables or passages of the source.

As to `CCN(CC)C(=O)COC(=O)/C=C/C(=O)OC` [(N,N-Diethylcarbamoyl)methyl methyl (2E)but-2-ene-1,4-dioate], the “relative GST enzyme activity (GSTArel)” value in data set [1] is given as “less than 80%”. Moreover, the “GI Irritation Score (180 mg-eq of MHF/kg)” value (from here on “GI Irritation Score”) in the data set with rat stomach is listed as 1.4. Further, the “reduction in EAE clinical score (Day 29 and overall AUC) compared to vehicle” value with C57BL/6 mice was “significant reduction”. Further, the “effect versus control in IMQ model (erythema score primary outcome)” value in the data set on Balb/c mice (oral 90 mg-eq/kg twice daily) is reported as “significant”. Also, the “intact prodrug in the systemic blood” value in data set [2] was “not detected”. For the same compound, in [3], the “conversion to MHF after absorption” value was “converted rapidly to MHF” and the “prodrug in the systemic circulation” value was “not detected”. Further, in data set [3] (500 mg/kg/day), the “MHF exposure compared with DMF at 300 mg/kg/day” value is given as “identical”. In addition, in data set [4], the “conversion to MHF after absorption” value is reported as “converted rapidly to MHF” and the “prodrug in the systemic circulation” value is “not detected”. The glandular stomach findings result with CD rats [5] was “no adverse effects on glandular stomach”.
As for `COC(=O)/C=C/C(=O)OCC(=O)N(C)C` [(N,N-Dimethylcarbamoyl)methyl methyl (2E)but-2-ene-1,4-dioate], the “GI Irritation Score” value with rat stomach turned out to be 2.4.
One may read the melting point as the temperature, or range, at which the solid turns liquid. In turn, `CCN(C(=O)COC(=O)/C=C/C(=O)OC)C1CC1` [(N-cyclopropyl-N-ethylcarbamoyl)methyl methyl 2(E)but-2-ene-1,4-dioate] registered a melting point of 92.1 °C. In addition, the “GI Irritation Score” value in the data set with rat stomach is listed as 1.0.
`COC(=O)/C=C/C(=O)OCC(=O)N(C)C1CC1` [(N-cyclopropyl-N-methylcarbamoyl)methyl methyl 2(E)but-2-ene-1,4-dioate] showed a melting point of 93.6 °C. The “GI Irritation Score” value in the data set on rat stomach amounted to 2.6.
For `COC(=O)/C=C/C(=O)OC` [Dimethyl Fumarate], the “GI Irritation Score” value in the data set on rat stomach came to 4.6. In addition, in the data set with C57BL/6 mice, the “reduction in EAE clinical score (Day 29 and overall AUC) compared to vehicle” value is recorded as “not statistically significant”. Also, in the data set on Balb/c mice (oral 45 or 90 mg-eq MMF/kg twice daily (either dose)), the “effect versus control in IMQ model (erythema score primary outcome)” value is given as “not significant”. Besides, in the data set with CD rats [6], the glandular stomach findings result was “ulceration, necrosis and loss of mucosa of glandular stomach”. The “gastric mucosal hyperplasia (histopathology) compared to (N,N-diethylcarbamoyl)methyl methyl (2E)but-2-ene-1,4-dioate” value in the data set with monkeys (monkeys, 4 weeks) is “greater gastric mucosal hyperplasia”. Also, the “gastrointestinal irritation after 4 weeks of dosing” value with monkeys (monkeys, 40, 90 or 250 mg/kg/day) is “dose dependent gastrointestinal irritation”. The mortality result in the data set with monkeys (monkeys, high dose, 4 weeks) was “One high dose DMF monkey died from gastric ulceration”.
Compound `COC(=O)/C=C/C(=O)OCC(=O)N1CCOCC1` [Methyl 2-morpholin-4-yl-2-oxoethyl (2E)but-2-ene-1,4-dioate] gave a melting point of 124 to 126 °C. Moreover, the “GI Irritation Score” value in the data set with rat stomach was 2.9.
Turning to `COC(=O)/C=C/C(=O)OCCN1CCOCC1` [Methyl 2-morpholin-4-ylethyl (2E)but-2-ene-1,4-dioate], the “GI Irritation Score” value in the data set on rat stomach turned out to be 0.0.
As to `COC(=O)/C=C/C(=O)OCC(=O)N1CCCC1` [Methyl 2-oxo-2-pyrrolidinylethyl 2(E)but-2-ene-1,4-dioate], the melting point amounted to 102.1 °C. Besides, the “GI Irritation Score” value with rat stomach is recorded as 3.0.
As for `COC(=O)/C=C/C(=O)OCCCN1CCOCC1` [Methyl 3-morpholin-4-ylpropyl (2E)but-2-ene-1,4-dioate], the “GI Irritation Score” value in the data set with rat stomach amounted to 0.0.
Consider `COC(=O)/C=C/C(=O)OCCCCN1CCOCC1` [Methyl 4-morpholin-4-ylbutyl (2E)but-2-ene-1,4-dioate], for which, in the data set on rat stomach, the “GI Irritation Score” value was 0.6.
For the compound `COC(=O)/C=C/C(=O)OCCCCCN1CCOCC1` [Methyl 5-morpholin-4-ylpentyl (2E)but-2-ene-1,4-dioate], the “GI Irritation Score” value in the data set with rat stomach came out at 0.0.
On the same count and under the same terms, with `COC(=O)/C=C/C(=O)OCCCCCCN1CCOCC1` [Methyl 6-morpholin-4-ylhexyl (2E)but-2-ene-1,4-dioate] the figure was 0.0.
